# pIC50: −log10 of the molar value.
# Target: Glutamate receptor ionotropic, NMDA 1 (Rattus norvegicus, UniProt P35439)
# Test: Ability of compound to compete with [3H]glycine for the strychnine-insensitive NMDA receptor glycine binding sites on rat cortical and hippocampus
# Type: tissue-based
row,Compound,pIC50
1,CN(C(=O)c1ccccc1)c1c(C(=O)O)[nH]c2cc(Cl)ccc12,6.96
2,CN(C(=O)c1ccccc1)c1c(C(=O)O)[nH]c2cc(Cl)cc(Cl)c12,6.57
3,O=C(Nc1c(C(=O)O)[nH]c2cc(Cl)ccc12)c1ccccc1,5.52
4,O=C(Nc1c(C(=O)O)[nH]c2cc(Cl)cc(Cl)c12)c1ccccc1,4.77
5,O=C(O)C(=O)Nc1c(C(=O)O)[nH]c2cc(Cl)cc(Cl)c12,6.77
6,O=C(O)CSc1c(C(=O)O)[nH]c2cc(Cl)cc(Cl)c12,7.00
7,O=C(O)CN(C(=O)c1ccccc1)c1c(C(=O)O)[nH]c2cc(Cl)cc(Cl)c12,6.40
8,CN(C(=O)C(=O)O)c1c(C(=O)O)[nH]c2cc(Cl)cc(Cl)c12,5.02
9,O=C(O)c1cc(O)c2c(Cl)cc(Cl)cc2n1,6.85
